Source: patent publication US10287301B2 (Achillion Pharmaceuticals, Inc., priority 2015, dated 2019)

Biological target: Human Factor D (Homo sapiens (Human), UniProt P00746)
Test: Human Factor D Assay
Assay type: biochemical
Conditions: not given
Procedure, shortened: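 Factor D (from human serum) 80 nM final + cpd, 5 min RT, 50 mM Tris/1M NaCl pH 7.5; add Z-L-Lys-SBzl 100 μM and DTNB 100 μM final. IC50 by nonlinear fit of rates vs [cpd].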

Human Factor D, sequence (P00746 26-253): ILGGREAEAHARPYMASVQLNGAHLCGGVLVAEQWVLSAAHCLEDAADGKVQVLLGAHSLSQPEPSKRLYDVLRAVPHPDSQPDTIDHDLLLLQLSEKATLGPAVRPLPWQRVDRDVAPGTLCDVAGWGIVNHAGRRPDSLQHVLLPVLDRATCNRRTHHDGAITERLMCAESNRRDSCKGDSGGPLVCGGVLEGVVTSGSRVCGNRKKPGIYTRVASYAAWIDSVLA

SMILES	IC50 [nM]
CC(=O)c1nn(CC(=O)N2C[C@H](F)C[C@H]2C(=O)Nc2cccc(Br)[n+]2[O-])c2ccc(-c3cnc(C)nc3)cc12 [Compound 743, 2-((2S,4R)-1-(2-(3-Acetyl-5-(2-methylpyrimidin-5-yl)-1H-indazol-1-yl)acetyl)-4-fluoropyrrolidine-2-carboxamido)-6-bromopyridine 1-oxide]	1000 to 10000
CC(=O)c1nn(CC(=O)N2C[C@H](F)C[C@H]2C(=O)Nc2cccc(Br)[n+]2[O-])c2ccc(-c3cnc(C)[n+]([O-])c3)cc12 [Compound 744, 5-(3-Acetyl-1-(2-((2S,4R)-2-((6-bromo-1-oxidopyridin-2-yl)carbamoyl)-4-fluoropyrrolidin-1-yl)-2-oxoethyl)-1H-indazol-5-yl)-2-methylpyrimidine 1-oxide]	1000 to 10000

Same assay, conditions: Human Factor D, Table 3; read-out: IC50

SMILES	IC50 [nM]
CC(=O)c1nn(CC(=O)N2C[C@H](F)C[C@H]2C(=O)Nc2cccc(-c3cc(S(=O)(=O)NC4CC4)ccc3Cl)c2F)c2ccc(-c3cnc(C)nc3)cc12 [Compound 745, (2S,4R)-1-(2-(3-Acetyl-5-(2-methylpyrimidin-5-yl)-1H-indazol-1-yl)acetyl)-N-(2′-chloro-5′-(N-cyclopropylsulfamoyl)-2-fluoro-[1,1′-biphenyl]-3-yl)-4-fluoropyrrolidine-2-carboxamide]	< 1000
CC(=O)c1nn(CC(=O)N2CCOC[C@@H]2C(=O)Nc2cccc(Br)n2)c2ccc(-c3cnc(C)nc3)cc12 [Compound 748, (R)-4-(2-(3-acetyl-5-(2-methylpyrimidin-5-yl)-1H-indazol-1-yl)acetyl)-N-(6-bromopyridin-2-yl)morpholine-3-carboxamide]	< 1000
CC(=O)c1nn(CC(=O)N2CCOC[C@H]2C(=O)Nc2cccc(Br)n2)c2ccc(-c3cnc(C)nc3)cc12 [Compound 749, (S)-4-(2-(3-acetyl-5-(2-methylpyrimidin-5-yl)-1H-indazol-1-yl)acetyl)-N-(6-bromopyridin-2-yl)morpholine-3-carboxamide]	< 1000
CC(=O)c1nn(CC(=O)N2C[C@H](F)C[C@H]2C(=O)Nc2cccc(S(=O)(=O)C(F)(F)F)c2)c2ccc(-c3cnc4cc(C)nn4c3)cc12 [Compound 752, (2S,4R)-1-(2-(3-acetyl-5-(2-methylpyrazolo[1,5-a]pyrimidin-6-yl)-1H-indazol-1-yl)acetyl)-4-fluoro-N-(3-((trifluoromethyl)sulfonyl)phenyl) pyrrolidine-2-carboxamide]	< 1000
